{
  "source": "paper PMC5955414",
  "about": "“PKD1 is a potential biomarker and therapeutic target in triple-negative breast cancer” (Oncotarget, 2018)",
  "key": {"PKD3 [1]": {"target": "T1, PKD3 (Homo sapiens, UniProt O94806)", "T1 sequence (O94806 1-890)": "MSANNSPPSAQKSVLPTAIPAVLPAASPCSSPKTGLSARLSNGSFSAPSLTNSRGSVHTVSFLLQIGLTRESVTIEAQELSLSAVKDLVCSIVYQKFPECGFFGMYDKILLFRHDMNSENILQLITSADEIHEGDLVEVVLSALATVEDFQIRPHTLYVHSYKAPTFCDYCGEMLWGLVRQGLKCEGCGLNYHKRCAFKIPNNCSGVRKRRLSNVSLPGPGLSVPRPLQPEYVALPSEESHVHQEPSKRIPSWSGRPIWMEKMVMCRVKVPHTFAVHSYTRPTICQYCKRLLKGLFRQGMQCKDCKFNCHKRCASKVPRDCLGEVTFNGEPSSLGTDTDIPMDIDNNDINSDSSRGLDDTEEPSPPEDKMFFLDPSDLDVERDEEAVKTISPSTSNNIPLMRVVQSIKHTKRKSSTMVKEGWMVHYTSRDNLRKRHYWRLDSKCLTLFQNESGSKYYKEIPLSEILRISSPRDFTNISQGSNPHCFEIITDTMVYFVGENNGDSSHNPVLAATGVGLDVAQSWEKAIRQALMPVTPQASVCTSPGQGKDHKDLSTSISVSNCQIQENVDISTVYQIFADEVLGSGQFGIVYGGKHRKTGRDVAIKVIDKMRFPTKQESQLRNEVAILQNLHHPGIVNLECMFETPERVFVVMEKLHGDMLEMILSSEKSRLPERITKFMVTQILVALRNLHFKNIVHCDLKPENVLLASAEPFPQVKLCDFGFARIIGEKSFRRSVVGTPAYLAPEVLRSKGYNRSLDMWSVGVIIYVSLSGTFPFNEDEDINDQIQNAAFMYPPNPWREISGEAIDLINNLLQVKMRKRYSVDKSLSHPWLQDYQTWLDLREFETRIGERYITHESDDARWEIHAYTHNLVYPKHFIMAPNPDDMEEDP", "set-up": "method as in PMID 20497126, PMID 20442301, PMID 18829454, PMID 21617763, PMID 20444281", "details": "cited from earlier work"}, "PKD3 [2]": {"target": "T1, PKD3", "test": "In vitro kinase inhibitory activity, PKD3", "format": "biochemical", "details": "AB9275: at concentrations inhibiting PKD1; compared with PKD1", "experimental": "(§1) Supplementary Figure 5: Specificity of the AB9275 PKD1 inhibitor. (A) Comparison of in vitro kinase inhibitory activities\n(§2) between AB9275 and different PKD1 inhibitors.\n(§3) CRT0066101. Other IC50s were obtained from the literature (as indicated). (B) Kinome selectivity profile of the AB9275 compound. The\n(§4) CA). AB9275 was screened at 1 μM."}, "[3]": {"test_system": "MCF7 chemoresistant xenografts", "set-up": "method as in PMID 26895471", "details": "cited from earlier work"}, "PKCα [4]": {"target": "T2, PKCα (Homo sapiens, UniProt P17252)", "test": "In vitro kinase inhibitory activity, PKCα", "format": "biochemical", "details": "AB9275: at concentrations inhibiting PKD1", "experimental": "as §1, §2, §3, §4"}, "PKCβ [5]": {"target": "T3, PKCβ (Homo sapiens, UniProt P05771)", "T3 sequence (P05771 whole entry, species assumed)": "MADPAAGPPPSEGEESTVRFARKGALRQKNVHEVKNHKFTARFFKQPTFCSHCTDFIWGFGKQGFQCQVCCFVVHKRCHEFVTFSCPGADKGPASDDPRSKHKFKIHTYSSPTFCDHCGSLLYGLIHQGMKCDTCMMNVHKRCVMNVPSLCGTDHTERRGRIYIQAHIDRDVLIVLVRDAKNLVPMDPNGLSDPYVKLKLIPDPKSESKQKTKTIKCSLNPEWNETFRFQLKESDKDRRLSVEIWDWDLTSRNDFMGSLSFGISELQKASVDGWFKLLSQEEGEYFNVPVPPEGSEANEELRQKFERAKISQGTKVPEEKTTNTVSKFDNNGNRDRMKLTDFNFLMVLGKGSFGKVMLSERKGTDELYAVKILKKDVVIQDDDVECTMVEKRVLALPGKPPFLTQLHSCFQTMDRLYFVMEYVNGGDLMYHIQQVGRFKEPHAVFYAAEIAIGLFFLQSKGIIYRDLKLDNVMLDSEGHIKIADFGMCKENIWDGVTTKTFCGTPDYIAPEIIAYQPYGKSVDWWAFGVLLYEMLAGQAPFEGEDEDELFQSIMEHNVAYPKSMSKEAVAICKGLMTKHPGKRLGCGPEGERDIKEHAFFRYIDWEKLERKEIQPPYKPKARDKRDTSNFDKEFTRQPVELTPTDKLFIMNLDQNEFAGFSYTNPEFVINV", "set-up": "method as in PMID 20497126, PMID 20442301, PMID 18829454, PMID 21617763, PMID 20444281", "details": "cited from earlier work"}, "PKCβ [6]": {"target": "T3, PKCβ", "test": "In vitro kinase inhibitory activity, PKCβ", "format": "biochemical", "details": "AB9275: at concentrations inhibiting PKD1", "experimental": "as §1, §2, §3, §4"}, "PKCα [7]": {"target": "T2, PKCα", "set-up": "method as in PMID 20497126, PMID 20442301, PMID 18829454, PMID 21617763, PMID 20444281", "details": "cited from earlier work"}},
  "data": [
    {"molecule": "O=C1NCCCc2c1oc1ccc(O)cc21", "note": "[CID755673]", "values": [
      {"measurement": "Inhibition of PKD3 relative to PKD1 (literature)", "setting": "PKD3 [1]", "result": "similarly inhibit PKD1 and PKD3"}
    ]},
    {"molecule": "CC[C@@H](N)CNc1ccnc(-c2cc(-c3cnn(C)c3)ccc2O)n1.Cl.Cl", "note": "[CRT0066101]", "values": [
      {"measurement": "Inhibition of PKD3 relative to PKD1 (literature)", "setting": "PKD3 [1]", "result": "similarly inhibit PKD1 and PKD3"},
      {"measurement": "Inhibition of PKD3 in vitro", "setting": "PKD3 [2]", "result": "more potent against PKD3"},
      {"measurement": "Tumor growth of MCF7 chemoresistant xenografts in vivo", "setting": "[3]", "result": "able to inhibit tumor growth"}
    ]},
    {"molecule": "Cn1c2ccccc2c2c3c(c4c5ccccc5n(CCC#N)c4c21)CNC3=O", "note": "[Gö6976]", "values": [
      {"measurement": "Inhibition of PKCα in vitro", "setting": "PKCα [4]", "result": "strongly inhibited"},
      {"measurement": "Inhibition of PKCβ (literature)", "setting": "PKCβ [5]", "result": "also inhibits"},
      {"measurement": "Inhibition of PKCβ in vitro", "setting": "PKCβ [6]", "result": "strongly inhibited"},
      {"measurement": "Inhibition of PKCα (literature)", "setting": "PKCα [7]", "result": "also inhibits"}
    ]},
    {"molecule": "CRT5", "values": [
      {"measurement": "Inhibition of PKD3 relative to PKD1 (literature)", "setting": "PKD3 [1]", "result": "similarly inhibit PKD1 and PKD3"}
    ]}
  ]
}
